From patent EP2662079A1 (Ordway Research Institute, Inc., priority 2012, dated 2013)

Key:
U87MG cells [1] = assay: Colony forming efficiency and flow cytometry; type: cell-based, human; settings: Tetrac for 1 h at 37°C
Method: U87MG cells were seeded at 10^6 cells/100 mm^2 dish and incubated at 37°C for 24 h. Adherent cells were trypsinized and washed once in ambient temperature PBS. Cells were then fixed in 70% ethanol, and stored overnight at 4°C. Cells were prepared for cell cycle analysis by first pelleting the cells (1000 rpm, 7 min, 4°C), and then resuspending the pellet in 1 mL of PBS containing 0.2 mg/mL propidium iodide (Boehringer Mannheim, Indianapolis, IN), with incubation in the dark for 30 min. Cells were then left overnight at 4°C in the dark. Cells were analyzed on a Coulter fluorescence-activated cell sorter (Coulter Electronics, Hialeah, FL). Cells were excited with a single 488 nm argon laser, and the resulting fluorescence was detected using a 585 nm filter. Linear red-orange FL3 data were collected (10,000 events per collection). The distribution of cells within the cell cycle was determined using a Coulter software program.

U87MG cells [2] = assay: Clonogenic survival after 250 kVp x-irradiation; type: cell-based, human
Method: To irradiate culture flasks, a Philips 250 kVp x-ray machine (Philips Corp., Fall River, MA) operated at 250 kVp and 15 mA with added filtration of a 0.4 mm Thoreaus filter was used. The target to source distance was 30 cm. Dose rates were measured using an R-meter (Victoreen Co., Cleveland, OH), and converted to absorbed (Gy) doses using appropriate temperature, pressure, and R to Gy conversion factors. The dose rate was approximately 1 Gy/min. Flasks were irradiated after being taken from a 37°C environment and moved to the x-ray source. Movement at ambient temperature took approximately 1-2 min. Cells were next placed on ice and allowed to cool for 5 min. Lastly, flasks were placed in the Philips irradiator on top of a 2 mm thickness of Lucite which was on top of a layer of crushed ice. […]
For SHMT analysis, data lying at or below a fractional survival (FxS) value of 0.368 were fit using a linear regression analysis of the log survival data versus linear dose. From this fit the extrapolation number (n), the quasi-threshold dose (Dq, Gy) and the inverse of the inactivation slope (Do, Gy) were derived.
For LQ analyses, survival data lying between the fractional survivals of 1.00 and 0.05 were used. The log survival data were transformed to a linear form using the relationship (- ln FxS/D) and plotted against D. A linear regression analysis was performed to yield the LQ equation along with the 95% confidence limits on the γ-intercept (alpha) and the slope (beta) using a t-table with the appropriate (N-1) degrees of freedom. (See Goldstein A. Biostatistics, Academic Press, 1995.)

[3] = tested on: SKN-SH, SaOS2, and MCF7 cells; assay: Proliferation of drug-sensitive and drug-resistant cancer cells (MTT assay); type: cell-based
Text: Cells were harvested and nuclear fractions prepared as described previously. Nucleoproteins, separated by gel electrophoresis, were immunoblotted with antibody to phosphorylated MAPK (pERK1 and pERK2, 44 and 42 kDa, respectively), followed by a second antibody linked to a luminescence-detection system. A β-action immunoblot of nuclear fractions serves as a control for gel loading in each part of this figure. […] The levels of FGF2 cDNA, shown in the top blot, were corrected for variations in GAPDH cDNA content, shown in the bottom blot, and the corrected levels of FGF2 are illustrated below in the graph (mean ±SE of mean; n = 2 experiments). […] Drug-sensitive and -resistant SKN-SH (Figures 13C-D), SaOS2 (Figures 13A-B), and MCF7 (Figures 13E-F) cells were subjected to treatment with increasing concentrations of Tetrac or Doxirubicin over a period of 4 days. Cell viability was then measured by MTT assay. […] The cells were treated for 24 h with each drug alone or the combination of both, after that, expression of drug resistance molecules was determined by Western blot using specific antibodies. […] The cells were incubated for 24 hours with doxorubicin in the absence or the presence of Tetrac, after that they were washed and then solubilized. […]

`O=C(O)Cc1cc(I)c(Oc2cc(I)c(O)c(I)c2)c(I)c1` [Tetrac, 3,3',5,5'-tetraiodothyroacetic acid] was tested, and the G1 (U87MG cells [1]; flow cytometry) was 58.2 (± 12.2) %, the G2/M (U87MG cells [1]; flow cytometry) was 24.8 (± 2.8) % and the S (U87MG cells [1]; flow cytometry) was 15.4 (± 9.1) %. For the same compound, the sub-G1 population (U87MG cells [1]; flow cytometry) was 1.5 (± 0.2) %, the colony forming efficiency (U87MG cells [1]; mean and 95% confidence limits) was 26.0 (± 6.1) % and the “increase of α (ratio of the alpha values)” value (U87MG cells [2]) was 3.6 fold. For the same compound, the “increase of β” value (U87MG cells [2]) was 4.8 fold, the median sensitization factor (U87MG cells [2]) was 3.6 and the “ratio of relative survival values at 2 Gy” value (U87MG cells [2]) was 4.6. The “reduction of the DQ value” (U87MG cells [2]) was 100%, the “reduction of the Do value” (U87MG cells [2]) was 31% and the α (U87MG cells [2]; LQ, Tetrac treated cells) was 0.817 (± 0.091). The β (U87MG cells [2]; LQ, Tetrac treated cells) was 0.076 (± 0.006), the “DQ (Gy)” value (U87MG cells [2]; SHMT, Tetrac treated cells) was 0.00 ± 0.22 Gy and the “Do (Gy)” value (U87MG cells [2]; SHMT, Tetrac treated cells) was 1.09 ± 0.36 Gy. For the same compound, the “relative survival at 2 Gy” value (U87MG cells [2]; Tetrac treated cells (control 59.6)) was 12.8, the isoeffect comparison ratio (U87MG cells [2]; at 10% survival) was 2.2 and the average sensitization factor (U87MG cells [2]; average of 3 comparisons, range of 2.2 to 4.6) was 3.5. For the same compound, the “anti-proliferative activity in vitro against drug-sensitive and drug-resistant cells” value ([3]; 4 days, MTT (Figure 13)) was “equivalent” and the “cellular responses to doxorubicin, etoposide, cisplatin and TSA when combined with Tetrac” value ([3]; resistant SKN-SH/R, MCF7/R and SaOS2/R cells (Figure 14)) was “significantly enhanced”.
